Measurements: paper PMC12164026, “Plant-derived nodule-specific cysteine-rich peptides as potent antifungal agents against Cryptococcus neoformans: mechanisms of action, chimeric peptide enhancement, and immunomodulatory effects” (Current Research in Microbial Sciences, 2025)
Peptide text beside a SMILES is read from it.

Assays:
[1] = test system: C. neoformans IFM 5844 cells; test: Cell membrane permeability, calcein-AM assay by flow cytometry; format: cell-based, Cryptococcus neoformans; details: half-MIC, 2 h, 30 °C, YNB
Protocol: The effect of the peptides on the cell membrane permeability of C. neoformans IFM 5844 cells was checked by flow cytometry with calcein-AM assay ([Olson, et al., 2001]). Calcein-acetoxymethyl ester (calcein-AM) is a membrane-permeable live-cell dye that, upon entering the cell, is cleaved by intracellular esterases, converting it into calcein, a membrane-impermeable fluorescent marker. The assay was carried out by suspending a total of 1 × 10^7 cells in 100 µl YNB medium containing 20 µg/mL indomethacin (Sigma-Aldrich, Saint Louis, MO, USA) and incubating them at 30 °C for 30 min to inhibit calcein transporters. Following this pre-treatment, membrane-permeable calcein-AM (Invitrogen, Waltham, MA, USA) was added to a final concentration of 5 µg/mL, and the samples were incubated at 30 °C for 3 h allowing the calcein-AM to enter the cells where esterases converted it to fluorescent calcein. After incubation, cells were washed twice with sterile distilled water and subsequently exposed to peptides at half-MIC concentrations in YNB medium for 2 h at 30 °C. Following peptide treatment, cells were washed twice with sterile distilled water, and fluorescence intensity was measured using a FlowSight® flow cytometer (Amnis-EMD Millipore) equipped with a 488-nm excitation laser. Intact cells stained with calcein-AM but not exposed to peptides served as controls. To ensure statistical reliability, four independent experiments were conducted, and fluorescence intensity was recorded from 10,000 cells per sample during each experiment.

J774.2 mouse macrophages = test: Phagocytosis of peptide-treated C. neoformans cells by macrophages, imaging flow cytometry; format: cell-based; details: yeast cells pre-treated with 3.12 µM peptide for 15 min, 5:1 yeast-to-macrophage ratio
Protocol: C. neoformans was cultivated for 16 h at 30 °C, collected by centrifugation (5000 g, 5 min), and washed twice with sterile distilled water and once with PBS. […] After 15 min of incubation at 30 °C, the peptide-containing solution was removed by centrifugation, and the C. neoformans cells were washed with PBS and re-suspended in 100 µL PBS. Untreated C. neoformans cells served as controls.
To label C. neoformans cells, the suspension was supplemented with 11 µL of 1 M Na₂CO₃ (pH 10) and 2 µL of Alexa Fluor 488-labelled-concanavalin (Invitrogen, Waltham, MA, US), followed by incubation at room temperature for 30 min, protected from light. After PBS washing, the cell density was determined using a Bürker chamber and adjusted to the required concentration. […]
Following incubation, cells from each technical replicate were collected by centrifugation (200 g, 10 min), washed once with PBS, and re-suspended in 100 µL PBS buffer for detection. A random selection of 1000 macrophages was evaluated in each experimental sample, and the proportion of macrophages harboring fluorescently labelled C. neoformans cells was quantified utilizing imaging flow cytometry (FlowSight®, Amnis-EMD Millipore) equipped with a 488-nm excitation laser, with data analysis conducted through the IDEAS software platform.

## CSCC[C@H](NC(=O)[C@H](CCCCN)NC(=O)[C@H](Cc1ccccc1)NC(=O)[C@H](CC(N)=O)NC(=O)[C@H](CC(C)C)NC(=O)[C@@H]1CCCN1C(=O)[C@@H](N)CCCNC(=N)N)C(=O)N[C@@H](CC(C)C)C(=O)N[C@@H](CCCNC(=N)N)C(=O)N[C@@H](Cc1ccccc1)C(=O)N[C@@H](Cc1c[nH]c2ccccc12)C(=O)NCC(=O)N[C@@H](CCC(N)=O)C(=O)N[C@@H](CCC(N)=O)C(=O)N[C@@H](CCC(N)=O)C(=O)N[C@@H](CS)C(=O)N[C@@H](CCCNC(=N)N)C(=O)N[C@@H](CCCNC(=N)N)C(=O)N1CCC[C@H]1C(=O)N[C@@H](CC(C)C)C(=O)N[C@@H](Cc1ccc(O)cc1)C(=O)N[C@@H](CS)C(=O)N[C@@H](CCCNC(=N)N)C(=O)N[C@@H](CCCNC(=N)N)C(=O)N[C@@H](CCCNC(=N)N)C(N)=O [X1-NCR247C] (H-RPLNFKMLRFWGQQQCRRPLYCRRR-NH2; N-terminus assumed)
[1]
  calcein leakage / membrane permeability disruption: slightly weaker effect
J774.2 mouse macrophages; 30 min post-infection, untreated control 5.12 %
  percentage of phagocytic macrophages: 7.95%
J774.2 mouse macrophages; 60 min post-infection, untreated control 6.95 %
  percentage of phagocytic macrophages: 33.95%
